According to the supplement of paper PMC13380429:

Legend:
Settings in all cases: 72 h
Caco-2 [1] = assay: cell viability relative to DMSO; higher = less toxic
Calu-3 [2] = assay: as above
HepG2 [3] = assay: as above
U2OS [4] = assay: as above
Vero E6 [5] = assay: as above
Caco-2 [6] = assay: relative viability EC50 (midpoint between 100% and the lowest measured viability); higher = less toxic
Calu-3 [7] = assay: as above
HepG2 [8] = assay: as above
U2OS [9] = assay: as above
Vero E6 [10] = assay: as above
Caco-2 [11] = assay: drug sensitivity score (DSS) for viability; higher = more toxic; extreme values may be limits of the assay
Calu-3 [12] = assay: as above
HepG2 [13] = assay: as above
U2OS [14] = assay: as above
Vero E6 [15] = assay: as above

Structure (SMILES)	cell viability (Caco-2 [1]; 1 nM) [%]	cell viability (Caco-2 [1]; 10 nM) [%]	cell viability (Caco-2 [1]; 100 nM) [%]	cell viability (Caco-2 [1]; 1000 nM) [%]	cell viability (Caco-2 [1]; 10000 nM) [%]	cell viability (Calu-3 [2]; 1 nM) [%]	cell viability (Calu-3 [2]; 10 nM) [%]	cell viability (Calu-3 [2]; 100 nM) [%]	cell viability (Calu-3 [2]; 1000 nM) [%]	cell viability (Calu-3 [2]; 10000 nM) [%]	cell viability (HepG2 [3]; 1 nM) [%]	cell viability (HepG2 [3]; 10 nM) [%]	cell viability (HepG2 [3]; 100 nM) [%]	cell viability (HepG2 [3]; 1000 nM) [%]	cell viability (HepG2 [3]; 10000 nM) [%]	cell viability (U2OS [4]; 1 nM) [%]	cell viability (U2OS [4]; 10 nM) [%]	cell viability (U2OS [4]; 100 nM) [%]	cell viability (U2OS [4]; 1000 nM) [%]	cell viability (U2OS [4]; 10000 nM) [%]	cell viability (Vero E6 [5]; 1 nM) [%]	cell viability (Vero E6 [5]; 10 nM) [%]	cell viability (Vero E6 [5]; 100 nM) [%]	cell viability (Vero E6 [5]; 1000 nM) [%]	cell viability (Vero E6 [5]; 10000 nM) [%]	relative viability EC50 (Caco-2 [6]) [µM]	relative viability EC50 (Calu-3 [7]) [µM]	relative viability EC50 (HepG2 [8]) [µM]	relative viability EC50 (U2OS [9]) [µM]	relative viability EC50 (Vero E6 [10]) [µM]	drug sensitivity score (Caco-2 [11])	drug sensitivity score (Calu-3 [12])	drug sensitivity score (HepG2 [13])	drug sensitivity score (U2OS [14])	drug sensitivity score (Vero E6 [15])
CCN(CC)Cc1nccn1-c1ccc([N+](=O)[O-])cc1C(=O)c1ccccc1Cl [nizofenone]	124	92.8	81.8	108	81.1	93.3	105	98.8	105	99.5	100	96	98.4	95.7	95.5	105	102	97.1	102	98.7	102	100	104	102	92.9	> 10	> 10	> 10	> 10	> 10	0.3	0	0	0	0
Cc1c(Cl)c(C)[n+]([O-])c(Cl)c1-c1noc(-c2cc(O)c(O)c([N+](=O)[O-])c2)n1 [opicapone]	87.3	99	93.8	111	95.4	84.3	106	95.3	102	105	108	103	110	88.1	97.9	100	104	94.4	102	104	97.3	96.6	96.3	98.6	95.8	> 10	> 10	> 10	> 10	> 10	0	0	0.4	0	0
CCCCCCCCCCC[C@@H](C[C@@H]1OC(=O)[C@H]1CCCCCC)OC(=O)[C@H](CC(C)C)NC=O [orlistat]	111	98.5	99.9	99	94.9	103	97.4	110	102	103	104	106	108	96.7	100	96	97.2	92.6	105	105	96.2	98.2	89.9	82.8	102	> 10	> 10	> 10	> 10	> 10	0	0	0	0	0
CC(C)C[C@H](NC(=O)[C@H](CCCCN)NC(=O)[C@H](CCCNC(=N)N)NC(=O)[C@H](C)NC(=O)[C@H](CO)NC(=O)[C@H](CCCCN)NC(=O)[C@H](CCCNC(=N)N)NC(=O)[C@H](C)NC(=O)CNC(=O)[C@@H](NC(=O)[C@H](Cc1ccccc1)NC(=O)CNC(=O)CNC(=O)[C@@H](N)Cc1ccccc1)[C@@H](C)O)C(=O)N[C@@H](C)C(=O)N[C@@H](CC(N)=O)C(=O)N[C@@H](CCC(N)=O)C(=O)O [orphanin-fq]	90.9	93.6	104	106	96.5	104	107	101	112	96.8	94.3	97.4	94.5	98.7	106	98.1	93.3	97.7	97.5	96.1	92.2	99.7	95.3	97.1	98.6	> 10	> 10	> 10	> 10	> 10	0	0	0	0	0
CCN(CC)CC1CCCCN1CC(=O)N1c2ccccc2C(=O)Nc2cccnc21 (stereo not given) [otenzepad]	104	104	108	97.6	98.8	102	105	96	96.3	101	94.3	104	92.3	101	98.9	100	102	102	100	97.4	97.8	97	95.7	92.4	99.5	> 10	> 10	> 10	> 10	> 10	0	0	0	0	0
O=C1CCC[C@@H]2[C@H]3CCC[N+]4([O-])CCC[C@@H](CN12)[C@@H]34 (stereo not given in full) [oxymatrine]	97.1	103	96.6	95.5	88.3	89	93.1	101	91.7	86.9	104	97.6	98.5	96.3	108	97.8	106	98	102	96.7	102	97.5	101	98.4	104	> 10	> 10	> 10	> 10	> 10	0	0	0	0	0
NC(=O)CC[C@H](NC(=O)Cc1ccccc1)C(=O)O [phenylacetylglutamine]	91.4	101	82.2	96	92.9	90.6	102	94.9	95.8	98.3	93.9	94.4	96.2	90.9	98.5	97	101	97.8	92.2	97.5	104	94.6	103	100	105	> 10	> 10	> 10	> 10	> 10	0	0	0	0	0
